Literature values as cited in US20070123520A1 (priority 2005, published 2007).

How the values were obtained:
sheep = settings: in vivo
[1] = in vivo
[2] = in vivo; remark: listed apart in the source
[3] = in vivo; remark: listed apart in the source
methemoglobinemia = settings: in vivo, iv, 1 mg/kg
[4] = in vivo; remark: listed apart in the source

In the case of `NC12CC3CC(CC(C3)C1)C2` [amantadine], the “activity against influenza A viruses” value (influenza A viruses) is given as “activity”.

For `CN(C)c1ccc2nc3ccc(N(C)C)cc3[s+]c2c1.[Cl-]` [methylene blue, 3,7-Bis(dimethylamino)-phenothiazin-5-ium chloride], the methemoglobin production (sheep) is given as “minimal”, the hematologic changes (sheep; 30 mg/kg) is given as “no hematologic changes” and the Side effects [1] is given as “blue urine, occasional nausea, anemia and fever”. The side effects [1] was “minimal side effects”, the “overall elimination rate constant” value [2] was 0.0076 ± 0.0016 min⁻¹ and the “absorption from the GI tract” value [3] was “absorbed well”. The “Oral absorption (range)” value ([3]; po) was 53-97%, the treatment of methemoglobinemia (methemoglobinemia) was “effective” and the “crossing of the blood-milk barrier” value [4] was “crosses the blood-milk barrier easily”.

For `CCOC(=O)C1=C[C@@H](OC(CC)CC)[C@H](NC(C)=O)[C@@H](N)C1` [oseltamivir], the “activity against influenza A viruses” value (influenza A viruses) is listed as “activity”.

For `CC(N)C12CC3CC(CC(C3)C1)C2` (stereo not shown) [rimantadine], the “activity against influenza A viruses” value (influenza A viruses) is given as “activity”.

For `CC(=O)N[C@H]1[C@H]([C@H](O)[C@H](O)CO)OC(C(=O)O)=C[C@@H]1N=C(N)N` [zanamivir], the “activity against influenza A viruses” value (influenza A viruses) is listed as “activity”.
